Data taken from ChEMBL document CHEMBL4627285, “Multi-step parallel synthesis enabled optimization of benzofuran derivatives as pan-genotypic non-nucleoside inhibitors of HCV NS5B” (Bioorg Med Chem Lett, 2020).
Converted amounts (≈) assume the structure as drawn.

Tests used:
[1] = Volume of distribution in Wistar rat; assay type: ADME; details: in vivo
[2] = Solubility of compound in FASSIF at pH 6.5; assay type: physicochemical
[3] = Clearance in Wistar rat; assay type: ADME; details: in vivo
[4] = AUC in Wistar rat; assay type: ADME; details: in vivo
[5] = MRT in Wistar rat; assay type: ADME; details: in vivo

Row | Vd [1] [L/kg] | solubility ([2]; FaSSIF, read-out: solubility) [µM] | clearance [3] [mL/min/kg] | AUC [4] [µM·h] | MRT [5] [h] | solubility ([2]; simulated gi fluid) [µM] | Compound
1 | 4.28 | 70 (≈ 45 µg/mL) | 27.4 | 1.06 | 2.84 | – | CNC(=O)c1c(-c2ccc(F)cc2)oc2cc(N(C)S(C)(=O)=O)c(-c3ccc4nc(C)n(Cc5ccc(F)cc5)c(=O)c4c3)cc12
2 | 5.79 | – | 7.03 | 3.92 | 18.1 | 42 (≈ 25.8 µg/mL) | CNC(=O)c1c(-c2ccc(F)cc2)oc2cc(N(C)S(C)(=O)=O)c(-c3ccc4c(n3)-c3cc5c(F)cccc5n3CO4)cc12 [MK-8876]
